Results reported in US10119972B2, “Reactive labelling compounds and uses thereof” (Academia Sinica, priority 2014, dated 2018).
Entries after “also recorded” stand apart in the source; their conditions may differ.

Experiments:
CL1-5 cells = test: Dual fluorescence labeling in cells (SPAAC with CuAAC), confocal microscopy; type: cell-based; details: CL1-5 cells with Ac4ManNAl and Ac4GlcNAz; 100 μM coumOCT, 0.1 μM AzBOCEt
Description: A dual-labeling experiment was performed using SPAAC in combination with CuAAC for the concurrent fluorescence labeling of two different metabolically incorporated glycoconjugates. Peracetylated N-acetylmannosamine (Ac4ManNAc) and peracetylated N-acetylglucosamine (Ac4GlcNAc) were employed as the control sugars. ManNAc is converted metabolically to sialic acid that is found as a terminal monosaccharide of glycoproteins and glycolipids in cell, whereas GlcNAz is an internal monosaccharide that abundant in the N- and O-linked glycans produced in the endoplasmic reticulum and Golgi. CL1-5 cells were incubated in the presence of both alkyne-containing sugar (Ac4ManNAl) and azido-containing sugar (Ac4GlcNAz) for three days. The cells were stained by SPAAC with coumOCT (for azido sugars), followed by CuAAC with AzBOCEt^6j (for alkynyl sugars), and investigated by confocal microscopy (FIG. 24).
(A) Illustration of the cell labeling experiments using Ac4ManNAl, Ac4GlcNAz, 101 and AzBOCEt. CL1-5 cells were incubated with 100 μM of Ac4ManNAl and Ac4GlcNAz or control sugars (Ac4ManNAc and Ac4GlcNAc) for 3 days, which were treated with 100 μM of probe 101 for 0.5 h under SPAAC conditions, and then incubated with 0.1 μM of AzBOCEt for 1 h under CuAAC conditions. (B) Dual fluorescence imaging in CL1-5 cells. […]

[1] = Absorption and fluorescence spectroscopy under simulated physiological conditions; type: physicochemical; details: for Absorption (λmax, nm) / Stokes shift / Emission (λmax, nm) / ε (M^−1cm^−1), extinction coefficient / Φf, fluorescence quantum yield: PBS buffer containing 10% DMSO, pH 7.4; for Emission (λmax, nm): excitation at 330 nm; for ε (M^−1cm^−1), extinction coefficient: measured at 330 nm; for Φf, fluorescence quantum yield: quinine sulfate (Φf = 0.54 ± 0.03) as standard; for increase in quantum yield compared to unreacted 101: triazole product vs 101
Description: Formation of triazoles 111 and 112 were accompanied by a significant increase in fluorescence intensity with a large Stokes shift into a standard range for coumarin emission (FIG. 16a).
FIG. 16 describes (a) Absorption and Fluorescence emission spectra (λex=330 nm) of 101 (black), 111 (blue) and 112 (red) (45 μM, PBS buffer containing 10% DMSO, pH 7.4). (b) Time course of normalized fluorescence intensity at 435 nm (λex=330 nm) for the ligation reaction of 101 (30 μM) with N-azidoacetylmannosamine (30 μM) in PBS buffer containing 10% DMSO.

[2] = Stability in presence of 3-mercaptopropionic acid by 1H-NMR; type: physicochemical; details: 25 mM in CDCl3 with 3-mercaptopropionic acid (32 mM), 25° C., 24 h
Description: A potential problematic side reaction of cyclooctynes is the addition with proteinic or endogenous thiols to the corresponding vinyl sulfides. To test whether potential non-specific stainings of 101 and the corresponding triazole 111 may occur due to additions of the SH groups to the triple bond or double bond by proteinic or endogenous thiols, the experiment was performed by incubation of 101 and 111 with 3-mercaptopropionic acid in CDCl3 (FIGS. 25 and 26).
A solution of compound 101 and compound 111 (25 mM in CDCl3) was incubated with a solution of 3-mercaptopropionic acid (32 mM in CDCl3) at room temperature (25° C.).
FIG. 25 show ^1H-NMR spectrum in CDCl3 of compound 101 and 3-mercaptopropionic acid alone, and ^1H-NMR spectrum of compound 101 was treated with 3-mercaptopropionic acid at 25° C. for 0 h, 2 h and 24 h.

SMILES	localization of labeled glycoconjugates (CL1-5 cells)	Absorption (λmax, nm) [1] [nm]	Stokes shift [1] [cm⁻¹]	Emission (λmax, nm) [1] [nm]	ε (M^−1cm^−1), extinction coefficient [1] [M⁻¹ cm⁻¹]	Φf, fluorescence quantum yield [1]	increase in quantum yield compared to unreacted 101 [1] [fold]	thiol-yne or thiol-ene addition / stability in the presence of thiols [2]
CCOC(=O)C1=C(C)C2=C(c3cc(N=[N+]=[N-])ccc3OC)c3c(C)c(C(=O)OCC)c(C)n3[B-](F)(F)[N+]2=C1C [Az10, 8-(5-Azido-2-methoxyphenyl)-2,6-diethoxycarbonyl-4,4-difluoro-1,3,5,7-tetramethyl-4-bora-3a,4a-diaza-s-indacene]	observed clearly on the cell surface and partially in the cytosol	–	–	–	–	–	–	–
O=C(Cn1nnc2c1CCCCc1cc3ccc(=O)oc3cc1-2)NC1C(O)OC(CO)[C@@H](O)C1O (stereo partly drawn) [Compound 112, N-[2-(11-Oxo-4,6,7,11-tetrahydrochromeno[7′,6′:3,4]cycloocta[1,2-d][1,2,3]triazol-3(5H)-yl)]acetamido-2-deoxy-α,β-D-mannopyranose]	–	330	7320	435	10800	0.21	20	–
O=c1ccc2cc3c(cc2o1)-c1nnn(Cc2ccccc2)c1CCCC3 [Compound 111, 10-Benzyl-6,7,8,9-tetrahydro-cyclooctatriazolo[5,4-g]chromen-2(2H)-one]	–	328	7500	435	12200	0.23	20	inactive; also recorded: high stability
